From publication PMC9963659, “Novel 2-Thiouracil-5-Sulfonamide Derivatives: Design, Synthesis, Molecular Docking, and Biological Evaluation as Antioxidants with 15-LOX Inhibition” (Molecules, 2023)

How the values were obtained:
[1] = DPPH radical scavenging assay; assay type: biochemical; details: mean ± SEM of three experiments
Procedure: The antioxidant potential of all target compounds (3–9) was determined using DPPH radical scavenging assay in comparison with ascorbic acid (AA) as the control treatment.
The mechanism of antioxidants as DPPH radical scavengers is based on their hydrogen-donation ability as hydrogen atoms or an electron transfer from the compound to the DPPH to form DPPH-H. The results of DPPH reduction are presented in Table 2, Figure 7.
The DPPH scavenging activity of all novel synthesized compounds (3–9) was measured as previously described (see Supplementary Materials).
1-Biological Evaluation Details: a-In-vitro Assays for biological antioxidant Activity
- DPPH scavenging method.
A 96-well plate was filled with 100 µL of the investigated compounds at various concentrations (12.5, 25, 50, 100, and 200 µg/mL ). The plate was then incubated at room temperature for 30 min while being protected from light by adding 100 µL of 100µM DPPH methanolic solution to each well. At a λ517 nm. the solution's absorbance was measured.
The positive control was ascorbic acid, and the negative control was DMSO. According to the following equation, the percentage of DPPH scavenging activity was determined:
% of DPPH scavenging = [(A control -A sample) / A control] x100. where A control is the absorbance of the control reaction (with all reagents except the test compound), and A sample is the absorbance of the test sample. Linear regression analysis was performed to calculate drug concentration showing 50% free radical inhibition activity (IC50). All tests were performed in triplicates. […]

[2] = Hydrogen peroxide scavenging assay; assay type: biochemical; details: mean ± SEM of three experiments
Procedure: H2O2 assay is used to estimate the scavenging power of the target compounds (4–9) to H2O2.
The hydrogen peroxide (H2O2) scavenging activity of all novel synthesized compounds 3–9 was measured as previously reported (see Supplementary Materials).
1-Biological Evaluation Details: a-In-vitro Assays for biological antioxidant Activity […]
Linear regression analysis was performed to calculate drug concentration showing 50% free radical inhibition activity (IC50). All tests were performed in triplicates.
-Scavenging of hydrogen peroxide
In this method, the decay or loss of hydrogen peroxide can be quantified spectrophotometrically at 230 nm when a scavenger is incubated with it. The procedure was applied with a few changes. In phosphate buffered saline, hydrogen […]
peroxide (20 mM) solution was prepared in phosphate buffered saline (PBS, pH 7.4). In order to make different concentrations of 1 ml of the tested substances (3–9) or standards in methanol, 2 ml of hydrogen peroxide solution in PBS was added. After 10 minutes, the absorbance of H2O2 was measured at 230 nm in comparison to an ascorbic acid (AA) reference solution that contained phosphate buffer but no H2O2.
% of H2O2 scavenging = [(A control -A sample) / A control] x100. […]

[3] = Lipid peroxidation assay (FeCl2/H2O2-stimulated linoleic acid peroxidation); assay type: biochemical; details: mean ± SEM of three experiments
Soybean 15-LOX enzyme = molecular target: T1, Soybean 15-LOX enzyme (Glycine max, UniProt P08170); assay: In vitro 15-lipoxygenase inhibition (Cayman Lipoxygenase Inhibitor Screening Assay Kit); assay type: biochemical; details: for IC50: Soybean 15-LOX, arachidonic acid substrate, mean ± SEM of three experiments; for 15-LOX inhibitory activity relative to quercetin: fold that of quercetin
T1 construct: purchased Cayman Chemical 760700
T1 sequence (P08170 1-839): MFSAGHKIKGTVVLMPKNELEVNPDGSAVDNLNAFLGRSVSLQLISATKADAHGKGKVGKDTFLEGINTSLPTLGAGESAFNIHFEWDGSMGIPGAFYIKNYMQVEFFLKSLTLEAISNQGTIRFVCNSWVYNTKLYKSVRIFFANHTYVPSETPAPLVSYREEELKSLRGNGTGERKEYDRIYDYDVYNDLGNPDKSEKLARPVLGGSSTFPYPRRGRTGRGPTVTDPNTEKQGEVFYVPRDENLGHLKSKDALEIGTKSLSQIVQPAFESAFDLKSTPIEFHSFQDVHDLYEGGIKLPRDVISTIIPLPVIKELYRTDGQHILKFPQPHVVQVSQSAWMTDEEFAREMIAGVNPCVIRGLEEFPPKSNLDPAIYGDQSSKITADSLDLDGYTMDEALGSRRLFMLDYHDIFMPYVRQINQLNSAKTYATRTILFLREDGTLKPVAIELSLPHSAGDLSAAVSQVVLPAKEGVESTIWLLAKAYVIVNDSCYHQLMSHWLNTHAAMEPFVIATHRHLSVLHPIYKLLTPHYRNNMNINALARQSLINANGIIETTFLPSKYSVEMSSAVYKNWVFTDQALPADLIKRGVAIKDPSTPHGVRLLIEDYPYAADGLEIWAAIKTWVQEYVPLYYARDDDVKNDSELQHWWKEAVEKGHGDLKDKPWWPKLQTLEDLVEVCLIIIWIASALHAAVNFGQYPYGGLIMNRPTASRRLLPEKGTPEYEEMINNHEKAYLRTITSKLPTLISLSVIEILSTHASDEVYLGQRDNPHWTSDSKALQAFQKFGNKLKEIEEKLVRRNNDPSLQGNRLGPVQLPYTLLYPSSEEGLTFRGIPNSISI
Procedure: 90 µL of 15-LOX was pipetted into a 96-well plate quickly. The test chemical was then dissolved in DMSO in 10 µL portions at concentrations of 2.5 µM, 5.0 µM, and 10 µM and added to each well. Arachidonic acid, a 110 µL substrate, was added to start the reaction, and the plate was shaken for at least five minutes. In order to interrupt enzyme catalysis and advance the reaction, 100 µL of chromogen was added to each well and made in accordance with the manufacturer’s instructions. In blank wells, 100 µL of assay buffer (0.1 M Tris-HCl, pH 7.4) was utilized. […] The solution’s absorbance was determined at λ 490–500 nm. The percentage inhibition was calculated according to the following equation:% inhibition = [(IA − Ainhibitor sample)/IA] × 100(1) where (IA) is the 100% initial activity and (Ainhibitor sample) is the absorbance of the test sample. A dose-response curve was plotted between % inhibition and the drug concentration. The non-linear dose-response curve was used for calculating drug concentration showing 50% enzyme inhibition.

SMILES | melting point [°C] | DPPH IC50 [1] [mg/L] | H2O2 IC50 [2] [mg/L] | Lipid Peroxidation IC50 [3] [mg/L] | IC50 (Soybean 15-LOX enzyme) [µM] | 15-LOX inhibitory activity relative to quercetin (Soybean 15-LOX enzyme) [fold]
N#Cc1c(-c2cccc(Cl)c2)cc(-c2cccc(NS(=O)(=O)c3c[nH]c(=S)[nH]c3=O)c2)[nH]c1=O [Compound 6b, N-{3-[5-cyano-4-(3-chlorophenyl)-6-oxo-1,6-dihydropyridin-2-yl]phenyl}-4-oxo-2-thioxo-1,2,3,4-tetrahydropyrimidine-5-sulfonamide] | 272 to 274 | 22.0 ± 1.18 | 30.0 ± 1.21 | 40.0 ± 1.63 | 7.6 ± 0.05 | –
N#Cc1c(-c2cccc(F)c2)cc(-c2cccc(NS(=O)(=O)c3c[nH]c(=S)[nH]c3=O)c2)[nH]c1=O [Compound 6c, N-{3-[5-cyano-4-(3-fluorophenyl)-6-oxo-1,6-dihydropyridin-2-yl]phenyl}-4-oxo-2-thioxo-1,2,3,4-tetrahydropyrimidine-5-sulfonamide] | 287 to 289 | 21.7 ± 0.7 | 29.0 ± 1.03 | 39.0 ± 1.46 | 7.8 ± 0.02 | –
Cc1cccc(-c2cc(-c3cccc(NS(=O)(=O)c4c[nH]c(=S)[nH]c4=O)c3)[nH]c(=O)c2C#N)c1 [Compound 6d, N-{3-[5-cyano-4-(3-methylphenyl)-6-oxo-1,6-dihydropyridin-2-yl]phenyl}-4-oxo-2-thioxo-1,2,3,4-tetrahydropyrimidine-5-sulfonamide] | 282 to 284 | 21.0 ± 0.5 | 28.8 ± 1.05 | 38.0 ± 1.42 | 7.5 ± 0.04 | –
N#Cc1c(-c2cccc([N+](=O)[O-])c2)cc(-c2cccc(NS(=O)(=O)c3c[nH]c(=S)[nH]c3=O)c2)nc1N [Compound 7a, N-{3-[6-amino-5-cyano-4-(3-nitrophenyl)pyridine-2-yl]phenyl}-4-oxo-2-thioxo-1,2,3,4-tetrahydropyrimidine-5-sulfonamides] | 251 to 253 | 25.5 ± 1.16 | 26.0 ± 1.28 | 37.6 ± 1.2 | 6.95 ± 0.07 | –
N#Cc1c(-c2cccc(Cl)c2)cc(-c2cccc(NS(=O)(=O)c3c[nH]c(=S)[nH]c3=O)c2)nc1N [Compound 7b, N-{3-[6-amino-5-cyano-4-(3-chlorophenyl)pyridine-2-yl]phenyl}-4-oxo-2-thioxo-1,2,3,4-tetrahydropyrimidine-5-sulfonamides] | 257 to 259 | 19.50 ± 1.06 | 25.0 ± 1.35 | 37.3 ± 1.3 | 6.7 ± 0.01 | –
N#Cc1c(-c2cccc(F)c2)cc(-c2cccc(NS(=O)(=O)c3c[nH]c(=S)[nH]c3=O)c2)nc1N [Compound 7c, N-{3-[6-amino-5-cyano-4-(3-fluorophenyl)pyridine-2-yl]phenyl}-4-oxo-2-thioxo-1,2,3,4-tetrahydropyrimidine-5-sulfonamides] | 268 to 270 | 17.7 ± 1.4 | 24.0 ± 1.40 | 36.9 ± 1.72 | 6.91 ± 0.02 | –
Cc1cccc(-c2cc(-c3cccc(NS(=O)(=O)c4c[nH]c(=S)[nH]c4=O)c3)nc(N)c2C#N)c1 [Compound 7d, N-{3-[6-amino-5-cyano-4-(3-methylphenyl)pyridine-2-yl]phenyl}-4-oxo-2-thioxo-1,2,3,4-tetrahydropyrimidine-5-sulfonamides] | 264 to 266 | 17.0 ± 1.63 | 23.9 ± 1.34 | 36.4 ± 1.33 | 6.6 ± 0.05 | –
O=c1[nH]c(=S)[nH]cc1S(=O)(=O)Nc1cccc(-c2csc(NN=Cc3cccc([N+](=O)[O-])c3)n2)c1 [Compound 9a, N-(3-{2-[(2E)-2(3-nitrobenzylidene)hydrazine]-1,3-thiazol-4-yl}phenyl)-4-oxo-thioxo-1,2,3,4-tetrahydropyrimidine-5-sulfonamides] | 316 to 318 | 15.0 ± 1.25 | 20.0 ± 1.40 | 22.0 ± 1.40 | 2.9 ± 0.08 | –
O=c1[nH]c(=S)[nH]cc1S(=O)(=O)Nc1cccc(-c2csc(NN=Cc3cccc(Cl)c3)n2)c1 [Compound 9b, N-(3-{2-[(2E)-2(3-chlorobenzylidene)hydrazine]-1,3-thiazol-4-yl}phenyl)-4-oxo-thioxo-1,2,3,4-tetrahydropyrimidine-5-sulfonamides] | 320 to 322 | 11.9 ± 1.40 | 18.0 ± 0.72 | 21.0 ± 1.45 | 1.8 ± 0.06 | 2.0
O=c1[nH]c(=S)[nH]cc1S(=O)(=O)Nc1cccc(-c2csc(NN=Cc3cccc(F)c3)n2)c1 [Compound 9c, N-(3-{2-[(2E)-2(3-fluorobenzylidene)hydrazine]-1,3-thiazol-4-yl}phenyl)-4-oxo-thioxo-1,2,3,4-tetrahydropyrimidine-5-sulfonamides] | 317 to 319 | 10.0 ± 0.83 | 16.0 ± 1.20 | 20.5 ± 1.48 | 1.95 ± 0.06 | 1.84
